Results reported in US20240262815A1, “HETEROARYL DERIVATIVE, METHOD FOR PREPARING SAME, AND PHARMACEUTICAL COMPOSITION COMPRISING SAME AS ACTIVE INGREDIENT” (VORONOI INC., priority 2021, published 2024).

Experiments:
[1] = tested on: SK-BR-3 cancer cells; assay: Inhibitory activity against proliferation of SK-BR-3 cancer cells (CellTiter-Glo); type: cell-based; conditions: Homo sapiens, SK-BR-3, 120 h, ErbB2-overexpressing SK-BR-3 cells, 120 hours after treatment
How it was run: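 Cells seeded 48 h before dosing (SK-BR-3 in McCOY'S 5A + 10% FBS; BT-474 in RPMI-1640 + 20% FBS), then exposed 120 h to 12 concentrations, 0.2 nM-5 μM final. Viability by CellTiter-Glo luminescence; GI50 from growth rate vs control, triplicate runs.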

[2] = tested on: BT-474 cancer cells; assay: Inhibitory activity against proliferation of BT-474 cancer cells (CellTiter-Glo); type: cell-based; conditions: Homo sapiens, BT-474 ErbB2-overexpressing cancer cells, 120 hours after treatment
Description: To evaluate the inhibitory activity of a compound according to the present invention against the proliferation of ErbB2-overexpressing cancer cells, the following experiment were performed.
10% FBS-added McCOY'S 5A was used for SK-BR-3 cancer cells. 20% FBS-added RPMI-1640 was used for BT-474 cancer cells. Transduced Ba/F3 cells were cultured in a RPMI-1640 medium to which 1 μg/ml puromycin (Invitrogen) was added.
48 hours before compound treatment, each type of the SK-BR-3 and BT-474 cells were seeded at 5,000 cells/well in a white clear bottom 96 well plate (Corning). The compound was diluted in dimethyl sulfoxide (SK-BR-3: 3-fold dilution, a total of 12 concentrations, BT-474: […], a total of 12 concentrations) and injected at 1 μl to have the final concentration of 0.2 nM to 5 μM. As for measurement of live cells, 120 hours after treatment with the compound, a CellTiter-Glo luminescent cell-viability reagent (Promega) was used to store the cells at room temperature for 10 minutes, followed by measurement of luminescence using a reader (SynergyNeo, Biotek). Each test was repeated three times.
The result values were calculated as a cell growth rate (%) compared to the control group. A graph was plotted using the GraphPad Prism version 8.3.0 program, and GI50 values were calculated.

Row | Compound | GI50 [1] [nM] | GI50 [2] [nM]
1 | C=CC(=O)Nc1cc(Nc2cc(N3OCC[C@@H]3c3cccc(OCc4cccc(F)c4)c3)ncn2)c(OC)cc1N(C)CCN(C)C [Example 228, (R)-N-(2-((2-(dimethylamino)-ethyl)(methyl)-amino)-5-((6-(3-(3-((3-fluorobenz-yl)oxy)phenyl)-isoxazolidin-2-yl)-pyrimidin-4-yl)-amino)-4-methoxy-phenyl)acrylamide] | < 50 | < 50
2 | C=CC(=O)Nc1cc(Nc2cc(N3OCCC3c3cccc(-c4cnn(C)c4)c3)ncn2)c(OC)cc1N(C)CCN(C)C (stereo not shown) [Example 233, N-(2-((2-(dimeth-ylamino)ethyl)-(methyl)amino)-4-methoxy-5-((6-(3-(3-(1-methyl-1H-pyrazol-4-yl)phen-yl)isoxazolidin-2-yl)pyrimidin-4-yl)amino)phenyl)-acrylamide] | < 50 | < 50
3 | C=CC(=O)Nc1cc(Nc2cc(N3OCCC3c3cccc(-c4cc(F)cc(F)c4)c3)ncn2)c(OC)cc1N(C)CCN(C)C (stereo not shown) [Example 265, N-(5-((6-(3-(3′,5′-difluoro-[1,1′-biphenyl]-3-yl)-isoxazolidin-2-yl)-pyrimidin-4-yl)-amino)-2-((2-(dimethylamino)-ethyl)(methyl)-amino)-4-meth-oxyphenyl)acryl-amide] | < 50 | < 50
4 | C=CC(=O)Nc1cc(Nc2cc(N3OCC[C@@H]3c3cccc(-c4ccc(F)cc4F)c3)ncn2)c(OC)cc1N(C)CCN(C)C [Example 279, (R)-N-(5-((6-(3-(2′,4′-difluoro-[1,1′-biphenyl]-3-yl)isoxazolidin-2-yl)pyrimidin-4-yl)amino)-2-((2-(dimethylamino)-ethyl)(methyl)-amino)-4-methoxy-phenyl)acrylamide] | < 50 | < 50
5 | C=CC(=O)Nc1cc(Nc2cc(N3OCC[C@@H]3c3cccc(-c4cccc(C(F)(F)F)c4F)c3)ncn2)c(OC)cc1N(C)CCN(C)C [Example 280, (R)-N-(2-((2-(dimethylamino)-ethyl)(methyl)-amino)-5-((6-(3-(2′-fluoro-3′-(trifluoromethyl)-[1,1′-biphenyl]-3-yl)isoxazolidin-2-yl)pyrimidin-4-yl)-amino)-4-methoxy-phenyl)acrylamide] | < 50 | < 50
6 | COc1cc(N2CCN(C)CC2)c(NC(=O)/C=C/CN(C)C)cc1Nc1cc(N2OCC[C@@H]2c2cccc(-c3cccc(F)c3)c2)ncn1 [Example 285, (R,E)-4-(dimethyl-amino)-N-(5-((6-(3-(3′-fluoro-[1,1′-biphenyl]-3-yl)-isoxazolidin-2-yl)-pyrimidin-4-yl)-amino)-4-methoxy-2-(4-methylpiper-azin-1-yl)phenyl)-but-2-enamide] | < 50 | < 50
7 | C=CC(=O)Nc1cc(Nc2cc(N3OCC[C@@H]3c3cccc(-c4cccc(F)c4)c3)ncn2)c(OC)cc1N1CCO[C@@H](C)C1 [Example 286, N-(5-((6-((R)-3-(3′-fluoro-[1,1′-biphenyl]-3-yl)-isoxazolidin-2-yl)-pyrimidin-4-yl)-amino)-4-methoxy-2-((S)-2-methyl-morpholino)phen-yl)acrylamide] | < 50 | < 50
8 | C=CC(=O)Nc1cc(Nc2cc(N3OCC[C@@H]3c3cccc(-c4cccc(F)c4)c3)ncn2)c(OC)cc1N1C[C@H]2C[C@@H]1CO2 [Example 287, N-(2-((1R,4R)-2-oxa-5-azabicyclo-[2.2.1]heptan-5-yl)-5-((6-((R)-3-(3′-fluoro-[1,1′-biphenyl]-3-yl)-isoxazolidin-2-yl)-pyrimidin-4-yl)-amino)-4-meth-oxyphenyl)acryl-amide] | < 50 | < 50
9 | C=CC(=O)Nc1cc(Nc2cc(N3OCC[C@@H]3c3cccc(-c4cccc(F)c4)c3)ncn2)c(OC)cc1N1CCN(C)C(=O)C1 [Example 288, (R)-N-(5-((6-(3-(3′-fluoro-[1,1′-biphenyl]-3-yl)-isoxazolidin-2-yl)-pyrimidin-4-yl)-amino)-4-meth-oxy-2-(4-methyl-3-oxopiperazin-1-yl)phenyl)acryl-amide] | < 50 | < 50

Continued, values first:

Row | GI50 [1] [nM] | GI50 [2] [nM] | Compound
10 | < 50 | < 50 | C=CC(=O)Nc1cc(Nc2cc(N3OCC[C@@H]3c3cccc(-c4ccccc4)c3)ncn2)c(OC)cc1N1CCC(N2CCN(C3CC3)[C@@H](C)C2)CC1 [Example 231, N-(5-((6-((R)-3-([1,1′-biphenyl]-3-yl)isoxazolidin-2-yl)pyrimidin-4-yl)amino)-2-(4-((S)-4-cycloprop-yl-3-methylpiper-azin-1-yl)piperidin-1-yl)-4-methoxy-phenyl)acrylamide]
11 | < 50 | < 50 | C=CC(=O)Nc1cc(Nc2cc(N3OCC[C@@H]3c3cccc(-c4cccc(F)c4)c3)ncn2)c(OC)cc1N1CCN(C)CC1 [Example 242, (R)-N-(5-((6-(3-(3′-fluoro-[1,1′-biphen-yl]-3-yl)isoxazol-idin-2-yl)pyrim-idin-4-yl)amino)-4-methoxy-2-(4-methylpiperazin-1-yl)phenyl)-acrylamide]
12 | < 50 | < 50 | C=CC(=O)Nc1cc(Nc2cc(N3OCC[C@@H]3c3cccc(C(=O)NC(C)C)c3)ncn2)c(OC)cc1N1CCC(N2CCN(C3CC3)CC2)CC1 [Example 253, (R)-3-(2-(6-((5-acrylamido-4-(4-(4-cyclopropyl-piperazin-1-yl)-piperidin-1-yl)-2-methoxyphenyl)-amino)pyrimidin-4-yl)isoxazolidin-3-yl)-N-isopropyl-benzamide]
13 | < 50 | < 50 | C=CC(=O)Nc1cc(Nc2cc(N3OCC[C@@H]3c3cccc(-c4cc(F)cc(F)c4)c3)ncn2)c(OC)cc1N1CCC(N2CCN(C3CC3)[C@@H](C)C2)CC1 [Example 274, N-(2-(4-((S)-4-cyclopropyl-3-methylpiperazin-1-yl)piperidin-1-yl)-5-((6-((R)-3-(3′,5′-difluoro-[1,1′-biphenyl]-3-yl)isoxazolidin-2-yl)pyrimidin-4-yl)amino)-4-meth-oxyphenyl)acryl-amide]
14 | < 50 | < 50 | C=CC(=O)Nc1cc(Nc2cc(N3OCC[C@@H]3c3cccc(-c4cc(F)cc(F)c4)c3)ncn2)c(OC)cc1N1CCN(C(C)=O)CC1 [Example 275, (R)-N-(2-(4-acetyl-piperazin-1-yl)-5-((6-(3-(3′,5′-difluoro-[1,1′-biphenyl]-3-yl)-isoxazolidin-2-yl)-pyrimidin-4-yl)-amino)-4-meth-oxyphenyl)acryl-amide]
15 | < 50 | < 50 | C=CC(=O)Nc1cc(Nc2cc(N3OCC[C@@H]3c3cccc(-c4cc(F)cc(F)c4)c3)ncn2)c(OC)cc1N1CCN(C)CC1 [Example 276, (R)-N-(5-((6-(3-(3′,5′-difluoro-[1,1′-biphenyl]-3-yl)isoxazolidin-2-yl)pyrimidin-4-yl)-amino)-4-methoxy-2-(4-methylpiper-azin-1-yl)phenyl)-acrylamide]
16 | < 50 | < 50 | C=CC(=O)Nc1cc(Nc2cc(N3OCC[C@@H]3c3cccc(-c4cc(F)cc(F)c4)c3)ncn2)c(OC)cc1N1CCN(CCC)CC1 [Example 278, (R)-N-(5-((6-(3-(3′,5′-difluoro-[1,1′-biphenyl]-3-yl)isoxazolidin-2-yl)pyrimidin-4-yl)-amino)-4-methoxy-2-(4-propylpiper-azin-1-yl)phenyl)-acrylamide]
17 | < 50 | < 50 | C=CC(=O)Nc1cc(Nc2cc(N3OCC[C@@H]3c3cccc(-c4ccc(F)cc4F)c3)ncn2)c(OC)cc1N1CCN(C)CC1 [Example 281, (R)-N-(5-((6-(3-(2′,4′-difluoro-[1,1′-biphenyl]-3-yl)isoxazolidin-2-yl)pyrimidin-4-yl)-amino)-4-methoxy-2-(4-methylpiper-azin-1-yl)phenyl)-acrylamide]
18 | 50 to 500 | < 50 | C=CC(=O)Nc1cc(Nc2cc(N3OCC[C@@H]3c3cccc(-c4cccc(C(F)(F)F)c4F)c3)ncn2)c(OC)cc1N1CCN(C)CC1 [Example 282, (R)-N-(5-((6-(3-(2′-fluoro-3′-(tri-fluoromethyl)-[1,1′-biphenyl]-3-yl)isoxazolidin-2-yl)pyrimidin-4-yl)-amino)-4-methoxy-2-(4-methylpiper-azin-1-yl)phenyl)-acrylamide]
19 | 50 to 500 | < 50 | C=CC(=O)Nc1cc(Nc2cc(N3OCC[C@@H]3c3cccc(-c4cc(F)cc(C(F)(F)F)c4)c3)ncn2)c(OC)cc1N1CCN(C)CC1 [Example 283, (R)-N-(5-((6-(3-(3′-fluoro-5′-(trifluoromethyl)-[1,1′-biphenyl]-3-yl)isoxazolidin-2-yl)pyrimidin-4-yl)-amino)-4-methoxy-2-(4-methylpiper-azin-1-yl)phenyl)-acrylamide]
20 | < 50 | < 50 | C=CC(=O)Nc1cc(Nc2cc(N3OCC[C@@H]3c3cccc(-c4cccc(F)c4F)c3)ncn2)c(OC)cc1N1CCN(C)CC1 [Example 284, (R)-N-(5-((6-(3-(2′,3′-difluoro-[1,1′-biphenyl]-3-yl)isoxazolidin-2-yl)pyrimidin-4-yl)-amino)-4-methoxy-2-(4-methylpiper-azin-1-yl)phenyl)-acrylamide]
